The values below come from patent US10125095B2, “Abscisic acid derivative” (NATIONAL UNIVERSITY CORPORATION SHIZUOKA UNIVERSITY, priority 2014, dated 2018).

In assay [1] the test system is seeds of thale cress (Arabidopsis thaliana, Col-0). In words: Thale cress seed germination test. It counts as in vivo. As to the method:
Seeds of thale cress (Arabidopsis thaliana, Col-0) were immersed in 500 μL of an aqueous solution of 70% ethanol for 30 minutes, subsequently in 500 μL of a 100% ethanol solution for 1 minute, washed five times in 1 mL of distilled water, then immersed in distilled water and, in a dark place, vernalized at 4° C. for 3 days. A solution of the sample in methanol was put in a 1.5 mL-microtube, and methanol was removed therefrom under reduced pressure. An aqueous solution of 0.5% agar (containing ½ MS medium inorganic salts) at 70° C. was added thereto and stirred, and subsequently the obtained mixture was placed in a 96-well plate to prepare the medium containing the sample. All samples were prepared so as to have a concentration of 3 μM of the compound in Examples 1 to 9 and Comparative Example 1. Further, when ABA is applied, the ABA concentration was adjusted to 0.3 μM. 20 to 30 vernalized seeds of thale cress were planted in each well and cultured at 22° C. under continuous light to monitor the number of seeds germinated over time. The germination rate was calculated by the following formula (1). Note that those cultured in medium prepared using methanol in the same manner were used as controls. […] Germination rate (%)=Number of seeds germinated/Number of seeds planted×100 (1)
The same test was carried out as in Test Example 1 with the concentrations of the compound of Example 1 for treatment varying from 0.3 μM to 30 μM.
Similarly, the same test was carried out with the concentrations of the compound of Example 2 for treatment varying from 0.3 μM to 30 μM.
The same test was carried out as in Test Example 2 with the concentrations of the compounds for treatment varying from 0.3 μM to 3 μM to compare the recovery effects on seed germination rate of the compound of Example 1 and the compound of Comparative Example 1.

The target of a further assay is T1, PYR1 (Arabidopsis thaliana, UniProt O49686).
T1 construct: 6xHis (N); made in house; host or cells: Escherichia coli BL21-codonplus(DE3)-RIPL (PYL); BL21(DE3)pLysS (HAB1)
T1 sequence (O49686 1-191): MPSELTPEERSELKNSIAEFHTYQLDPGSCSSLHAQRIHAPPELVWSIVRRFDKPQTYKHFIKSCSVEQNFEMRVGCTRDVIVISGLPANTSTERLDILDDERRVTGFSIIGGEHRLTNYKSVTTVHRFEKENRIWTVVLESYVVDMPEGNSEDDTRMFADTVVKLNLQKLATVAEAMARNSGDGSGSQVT
The assay can be described thus: Protein dephosphorylation enzyme activity test, PYR1. It counts as biochemical, thale cress. The following applies: control = 100%. As to the method:
A plasmid (pGex-2T-GST-HAB1 or pET28-6×His-PYL) encoded with PYR/PYL/RCAR proteins (PYL, abscisic acid receptor) or protein dephosphorylation enzyme HAB1 of thale cress was transformed to Escherichia coli (HAB1:BL21(DE3)pLysS, PYL:BL21-codonplus(DE3)-RIPL). Isopropyl-β-thiogalactopyranoside was added to the culture broth, which had been subjected to pre-culture (30° C., 180 rpm, 15 hours) and main culture (30° C., 180 rpm, 4 hours), and the protein-expressed (16° C., 150 rpm, 18 hours) crude enzyme solution was purified using FPLC thereby preparing the recombined PYL (PYR1, PYL1-6, PYL8-10) and HAB1. β-Mercaptoethanol, a manganese chloride aqueous solution, HAB1, PYL, a solution of the sample in dimethylsulfoxide and ultrapure water were sequentially added to a 96-well plate, allowed to stand at 22° C. for 30 minutes. Subsequently p-nitrophenylphosphate, which is the artificial substrate of HAB1, was added thereto to start the reaction, and the plate was placed in a microplate reader (TECAN, Infinite™ N200 NanoQuant). The absorbance at 405 nm due to p-nitrophenol, which is the hydrolysate of p-nitrophenylphosphate, was measured 3 minutes later from the reaction initiation, and HAB1 activity was calculated by the following formula (2). Note that the fraction to which only dimethylsulfoxide was added was considered to be the control and the activity thereof was defined as 100%. […] HAB1 specific activity (%)=Absorbance when sample was added/Absorbance of control×100 (2)

For another assay, the target named is T2, recombined PYL5 (Arabidopsis thaliana, UniProt Q9FLB1).
T2 construct: 6xHis (N); made in house; host or cells: Escherichia coli BL21-codonplus(DE3)-RIPL
T2 sequence (Q9FLB1 1-203): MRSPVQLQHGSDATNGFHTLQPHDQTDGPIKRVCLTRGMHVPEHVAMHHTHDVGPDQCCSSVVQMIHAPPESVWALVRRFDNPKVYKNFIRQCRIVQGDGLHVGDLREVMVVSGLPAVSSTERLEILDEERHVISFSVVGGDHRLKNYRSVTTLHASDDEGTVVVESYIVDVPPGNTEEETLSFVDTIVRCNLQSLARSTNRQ
The assay can be described thus: Bonding affinity measurement using an isothermal titration calorimeter. It counts as binding, thale cress. The following applies: ITC, 20° C., sodium phosphate buffer. On the procedure:
A sodium phosphate buffer solution of a recombined PYL5 was prepared in the same procedure as in Test Example 5, and put in a reaction cell of an isothermal titration calorimeter (GE Healthcare, MicroCal iTC200), and a sodium phosphate buffer solution of the compound of Example 1 was put in the syringe. Then, the calorimeter was set to 20° C. and the measurement was carded out. The same measurement as above was also carried out for the compounds of Examples 7 to 9.

Setting [2] is: 3 μM compound co-applied with 0.3 μM ABA.

As for `CC1=C[C@@H](OCC#Cc2ccc(C(F)(F)F)cc2)CC(C)(C)[C@@]1(O)/C=C/C(C)=C\C(=O)O` [Example 4, (2Z,4E)-5-((1S,4S)-1-hydroxy-2,6,6-trimethyl-4-((3-(4-trifluoromethyl)phenylprop-2-yn-1-yl)oxy)cyclohex-2-en-1-yl)-3-methylpenta-2,4-dienoic acid], in assay [1] (setting [2]), the “Germination rate (%) 24 Hours later” value turned out to be 0%, the “Germination rate (%) 36 Hours later” value was found to be 29%, the “Germination rate (%) 48 Hours later” value was found to be 58% and the “Germination rate (%) 60 Hours later” value is on record as 100%. In addition, in assay [1] (compound alone, 3 μM), the “Germination rate (%) 24 Hours later” value is 8%, the “Germination rate (%) 36 Hours later” value is 33%, the “Germination rate (%) 48 Hours later” value amounted to 75% and the “Germination rate (%) 60 Hours later” value is on record as 92%. Further, the “HAB1 Specific activity (%) PYR1” value at PYR1 (ABA + compound) was determined as 36.7%. Further, the “HAB1 Specific activity (%) PYR1” value at PYR1 (sample alone) worked out at 55.4%.

As to `COc1ccc(C#CCO[C@@H]2C=C(C)[C@](O)(/C=C/C(C)=C\C(=O)O)C(C)(C)C2)cc1` [Example 5, (2Z,4E)-5-((1S,4S)-1-hydroxy-2,6,6-trimethyl-4-((3-(4-methoxy)phenylprop-2-yn-1-yl)oxy)cyclohex-2-en-1-yl)-3-methylpenta-2,4-dienoic acid], in assay [1] (setting [2]), the “Germination rate (%) 24 Hours later” value is reported as 0%, the “Germination rate (%) 36 Hours later” value was found to be 30%, the “Germination rate (%) 48 Hours later” value is reported as 67% and the “Germination rate (%) 60 Hours later” value is reported as 100%. Besides, in assay [1] (compound alone, 3 μM), the “Germination rate (%) 24 Hours later” value turned out to be 5%, the “Germination rate (%) 36 Hours later” value stood at 37%, the “Germination rate (%) 48 Hours later” value is 79% and the “Germination rate (%) 60 Hours later” value stood at 95%. Moreover, at PYR1 (ABA + compound), the “HAB1 Specific activity (%) PYR1” value came to 50.5%. Moreover, the “HAB1 Specific activity (%) PYR1” value at PYR1 (sample alone) was found to be 92.3%.

On to `C#CCO[C@@H]1C=C(C)[C@](O)(/C=C/C(C)=C\C(=O)O)C(C)(C)C1` [Example 3, (2Z,4E)-5-((1S,4S)-1-hydroxy-2,6,6-trimethyl-4-(prop-2-yn-1-yloxy)cyclohex-2-en-1-yl)-3-methylpenta-2,4-dienoic acid], for which, in assay [1] (setting [2]), the “Germination rate (%) 24 Hours later” value is given as 0%, the “Germination rate (%) 36 Hours later” value stood at 6.9%, the “Germination rate (%) 48 Hours later” value amounted to 20.7% and the “Germination rate (%) 60 Hours later” value is given as 48.3%. Further, in assay [1] (compound alone, 3 μM), the “Germination rate (%) 24 Hours later” value is reported as 0%, the “Germination rate (%) 36 Hours later” value was 13.3%, the “Germination rate (%) 48 Hours later” value is 60% and the “Germination rate (%) 60 Hours later” value was found to be 71.1%.

For `CC1=C[C@@H](OCCCc2ccccc2)CC(C)(C)[C@@]1(O)/C=C/C(C)=C\C(=O)O` [Example 9], at recombined PYL5, the Kd amounted to 360 ± 70 nM, the ΔG is -8.6 ± 0.1 kcal/mol, the ΔH was -6.7 ± 0.1 kcal/mol and the “−TΔS” value was -2.0 kcal/mol. In assay [1] (setting [2]), the “Germination rate (%) 24 Hours later” value was 0%, the “Germination rate (%) 36 Hours later” value is recorded as 60%, the “Germination rate (%) 48 Hours later” value is 100% and the “Germination rate (%) 60 Hours later” value was 100%. Besides, in assay [1] (compound alone, 3 μM), the “Germination rate (%) 24 Hours later” value was determined as 1%, the “Germination rate (%) 36 Hours later” value is 88%, the “Germination rate (%) 48 Hours later” value was found to be 100% and the “Germination rate (%) 60 Hours later” value is listed as 100%. The “HAB1 Specific activity (%) PYR1” value on PYR1 (ABA + compound) amounted to 32.1%. Besides, the “HAB1 Specific activity (%) PYR1” value at PYR1 (sample alone) was determined as 87.8%.

Regarding `CC1=C[C@@H](OCC#Cc2ccc(S(F)(F)(F)(F)F)cc2)CC(C)(C)[C@@]1(O)/C=C/C(C)=C\C(=O)O` [Example 8], at recombined PYL5, the equilibrium dissociation constant (Kd) stood at 180 ± 10 nM, the ΔG was -9.0 ± 0.1 kcal/mol, the ΔH was -4.9 ± 0.1 kcal/mol and the “−TΔS” value is -4.1 kcal/mol. In addition, in assay [1] (setting [2]), the “Germination rate (%) 24 Hours later” value was found to be 0%, the “Germination rate (%) 36 Hours later” value is given as 0%, the “Germination rate (%) 48 Hours later” value was 23% and the “Germination rate (%) 60 Hours later” value is recorded as 89%. Moreover, in assay [1] (compound alone, 3 μM), the “Germination rate (%) 24 Hours later” value was found to be 0%, the “Germination rate (%) 36 Hours later” value turned out to be 60%, the “Germination rate (%) 48 Hours later” value came to 100% and the “Germination rate (%) 60 Hours later” value was determined as 100%. In addition, the “HAB1 Specific activity (%) PYR1” value at PYR1 (ABA + compound) was found to be 62.9%. The “HAB1 Specific activity (%) PYR1” value at PYR1 (sample alone) was 105%.

With `CC(=O)c1ccc(C#CCO[C@@H]2C=C(C)[C@](O)(/C=C/C(C)=C\C(=O)O)C(C)(C)C2)cc1` [Example 6, (2Z,4E)-5-((1S,4S)-1-hydroxy-2,6,6-trimethyl-4-((3-(4-acetyl)phenylprop-2-yn-1-yl)oxy)cyclohex-2-en-1-yl)-3-methylpenta-2,4-dienoic acid], in assay [1] (setting [2]), the “Germination rate (%) 24 Hours later” value is 7%, the “Germination rate (%) 36 Hours later” value is on record as 28%, the “Germination rate (%) 48 Hours later” value is recorded as 52% and the “Germination rate (%) 60 Hours later” value came out at 72%. In addition, in assay [1] (compound alone, 3 μM), the “Germination rate (%) 24 Hours later” value is given as 0%, the “Germination rate (%) 36 Hours later” value came out at 17%, the “Germination rate (%) 48 Hours later” value is given as 75% and the “Germination rate (%) 60 Hours later” value was found to be 92%. For the same molecule, the “HAB1 Specific activity (%) PYR1” value at PYR1 (ABA + compound) is listed as 41.5%. Besides, the “HAB1 Specific activity (%) PYR1” value at PYR1 (sample alone) is 87.9%.
